Data: ChEMBL document CHEMBL1201862, “PubChem BioAssay data set” (2004)
Calls of active or inactive are those of the source.

Tests used:
Format in all cases: functional
[1] = molecular target: ALK tyrosine kinase receptor (Homo sapiens, UniProt Q9UM73);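 note: ALK tested as one member of a kinase panel screen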
[2] = molecular target: Cyclin-dependent kinase 19 (Homo sapiens, UniProt Q9BWU1); assay: Navigating the Kinome. Panel member name: CDC2L6
[3] = molecular target: T1, V-type proton ATPase subunit c' (Saccharomyces cerevisiae S288c, UniProt P32842); assay: Dose Response with BCECF Assay for V-ATPase inhibitors that increase vacuolar pH, Powder Set 1.; conditions: read-out: EC50_MICROM
T1 sequence (P32842 whole entry): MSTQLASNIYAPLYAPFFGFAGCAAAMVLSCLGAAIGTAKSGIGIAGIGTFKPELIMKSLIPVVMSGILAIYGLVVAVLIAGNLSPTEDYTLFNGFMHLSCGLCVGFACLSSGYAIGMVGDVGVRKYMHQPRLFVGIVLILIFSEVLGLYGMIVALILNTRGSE

[4] = molecular target: T1, V-type proton ATPase subunit c'; assay: Dose Response of Small Molecules that Regulate V-ATPase Proton Transport in Yeast using pHLuorin, Powder Set1.; conditions: read-out: EC50_MICROM
[5] = molecular target: Serine/threonine-protein kinase pim-1 (Homo sapiens, UniProt P11309)
Sequence of Serine/threonine-protein kinase pim-1 (P11309 whole entry): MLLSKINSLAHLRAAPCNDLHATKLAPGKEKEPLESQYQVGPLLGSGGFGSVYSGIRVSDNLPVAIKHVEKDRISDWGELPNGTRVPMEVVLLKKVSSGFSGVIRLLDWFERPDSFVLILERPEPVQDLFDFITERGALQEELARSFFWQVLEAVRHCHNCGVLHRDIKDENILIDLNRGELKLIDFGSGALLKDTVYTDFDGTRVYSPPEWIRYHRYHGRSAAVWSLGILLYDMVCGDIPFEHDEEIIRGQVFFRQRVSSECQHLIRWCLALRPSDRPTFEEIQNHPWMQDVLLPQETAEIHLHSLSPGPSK

[6] = molecular target: Cell division cycle 7-related protein kinase (Homo sapiens, UniProt O00311);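 note: value obtained from a kinome-wide kinase panel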
[7] = molecular target: Homeodomain-interacting protein kinase 2 (Homo sapiens, UniProt Q9H2X6);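 note: measured within a kinome-wide kinase profiling panel, HIPK2 being one panel member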
[8] = molecular target: Interleukin-1 receptor-associated kinase 4 (Homo sapiens, UniProt Q9NWZ3)
Sequence of Interleukin-1 receptor-associated kinase 4 (Q9NWZ3 whole entry): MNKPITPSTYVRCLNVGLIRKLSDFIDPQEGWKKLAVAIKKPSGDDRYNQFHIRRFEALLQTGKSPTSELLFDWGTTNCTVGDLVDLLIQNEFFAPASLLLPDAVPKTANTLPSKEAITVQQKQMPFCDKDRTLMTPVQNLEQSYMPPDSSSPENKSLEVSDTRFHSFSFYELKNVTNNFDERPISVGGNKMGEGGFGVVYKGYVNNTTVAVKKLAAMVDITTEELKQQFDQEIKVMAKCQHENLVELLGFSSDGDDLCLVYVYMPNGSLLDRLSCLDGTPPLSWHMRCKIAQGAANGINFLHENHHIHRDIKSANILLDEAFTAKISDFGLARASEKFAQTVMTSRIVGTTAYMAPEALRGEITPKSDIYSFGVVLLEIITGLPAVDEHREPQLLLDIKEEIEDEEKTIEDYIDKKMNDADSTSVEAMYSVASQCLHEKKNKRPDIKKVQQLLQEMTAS

[9] = molecular target: Glycogen synthase kinase-3 beta (Homo sapiens, UniProt P49841);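 note: value comes from a broad kinome profiling panel, with GSK3B as the panel member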
Sequence of Glycogen synthase kinase-3 beta (P49841 whole entry): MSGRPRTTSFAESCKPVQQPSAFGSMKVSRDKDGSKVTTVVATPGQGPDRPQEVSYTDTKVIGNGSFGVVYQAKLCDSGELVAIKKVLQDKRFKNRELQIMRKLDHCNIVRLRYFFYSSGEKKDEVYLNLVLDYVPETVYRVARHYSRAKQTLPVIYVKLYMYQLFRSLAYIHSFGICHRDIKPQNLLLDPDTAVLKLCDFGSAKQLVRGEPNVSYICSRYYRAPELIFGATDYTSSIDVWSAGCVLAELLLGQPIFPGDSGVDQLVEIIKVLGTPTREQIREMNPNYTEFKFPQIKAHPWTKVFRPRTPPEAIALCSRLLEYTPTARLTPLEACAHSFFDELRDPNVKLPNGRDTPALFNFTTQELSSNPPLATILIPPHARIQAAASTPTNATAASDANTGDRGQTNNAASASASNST

[10] = molecular target: cAMP-dependent protein kinase catalytic subunit alpha (Homo sapiens, UniProt P17612)
[11] = molecular target: Dual specificity protein kinase CLK4 (Homo sapiens, UniProt Q9HAZ1)
Sequence of Dual specificity protein kinase CLK4 (Q9HAZ1 whole entry): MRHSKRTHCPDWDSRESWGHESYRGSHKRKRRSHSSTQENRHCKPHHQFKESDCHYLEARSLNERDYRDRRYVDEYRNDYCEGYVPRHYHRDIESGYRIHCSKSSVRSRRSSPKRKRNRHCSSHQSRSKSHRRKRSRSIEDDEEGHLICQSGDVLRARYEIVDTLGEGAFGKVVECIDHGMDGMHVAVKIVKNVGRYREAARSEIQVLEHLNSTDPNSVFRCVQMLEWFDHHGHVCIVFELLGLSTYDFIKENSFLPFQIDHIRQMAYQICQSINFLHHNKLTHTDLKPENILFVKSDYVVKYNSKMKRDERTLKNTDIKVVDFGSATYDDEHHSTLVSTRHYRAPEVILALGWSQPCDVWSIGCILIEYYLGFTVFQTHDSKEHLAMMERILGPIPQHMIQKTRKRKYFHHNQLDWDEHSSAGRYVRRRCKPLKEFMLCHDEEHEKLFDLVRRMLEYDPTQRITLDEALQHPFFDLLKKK

[12] = molecular target: Mitogen-activated protein kinase kinase kinase kinase 4 (Homo sapiens, UniProt O95819)
Sequence of Mitogen-activated protein kinase kinase kinase kinase 4 (O95819 whole entry): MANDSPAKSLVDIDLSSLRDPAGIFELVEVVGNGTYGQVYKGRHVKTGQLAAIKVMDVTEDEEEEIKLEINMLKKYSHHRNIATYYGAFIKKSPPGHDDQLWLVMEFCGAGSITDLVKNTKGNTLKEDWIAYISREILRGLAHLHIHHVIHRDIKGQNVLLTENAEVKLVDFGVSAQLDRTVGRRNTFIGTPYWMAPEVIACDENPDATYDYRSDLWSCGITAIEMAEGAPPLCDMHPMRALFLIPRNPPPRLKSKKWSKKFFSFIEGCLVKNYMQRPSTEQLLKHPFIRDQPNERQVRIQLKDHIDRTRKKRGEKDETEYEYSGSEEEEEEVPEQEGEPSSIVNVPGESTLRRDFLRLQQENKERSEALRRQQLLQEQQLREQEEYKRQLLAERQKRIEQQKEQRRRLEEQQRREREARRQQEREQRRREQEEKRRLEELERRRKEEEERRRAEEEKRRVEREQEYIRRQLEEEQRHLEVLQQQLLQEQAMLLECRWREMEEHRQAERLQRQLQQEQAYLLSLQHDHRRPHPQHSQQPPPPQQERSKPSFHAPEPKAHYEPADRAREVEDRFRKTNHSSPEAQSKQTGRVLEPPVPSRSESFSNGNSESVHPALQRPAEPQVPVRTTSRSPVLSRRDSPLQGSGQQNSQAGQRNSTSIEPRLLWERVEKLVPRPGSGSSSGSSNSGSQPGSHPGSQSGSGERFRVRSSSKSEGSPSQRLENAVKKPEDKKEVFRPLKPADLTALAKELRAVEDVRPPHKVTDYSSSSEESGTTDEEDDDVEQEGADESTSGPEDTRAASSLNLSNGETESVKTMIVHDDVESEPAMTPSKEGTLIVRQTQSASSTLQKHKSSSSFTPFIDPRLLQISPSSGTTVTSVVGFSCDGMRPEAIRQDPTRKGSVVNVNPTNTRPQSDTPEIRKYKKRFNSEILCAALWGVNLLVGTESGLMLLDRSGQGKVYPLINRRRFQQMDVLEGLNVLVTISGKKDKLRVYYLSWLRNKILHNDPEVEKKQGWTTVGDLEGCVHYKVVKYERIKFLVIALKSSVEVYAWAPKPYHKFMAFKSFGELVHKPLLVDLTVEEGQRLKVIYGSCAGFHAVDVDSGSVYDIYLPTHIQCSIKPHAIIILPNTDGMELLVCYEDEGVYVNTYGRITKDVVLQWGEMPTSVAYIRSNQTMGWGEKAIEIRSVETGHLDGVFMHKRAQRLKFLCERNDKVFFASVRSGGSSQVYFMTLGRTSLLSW

Aurora kinase B = Aurora kinase B (Homo sapiens, UniProt Q96GD4)
Sequence of Aurora kinase B (Q96GD4 whole entry): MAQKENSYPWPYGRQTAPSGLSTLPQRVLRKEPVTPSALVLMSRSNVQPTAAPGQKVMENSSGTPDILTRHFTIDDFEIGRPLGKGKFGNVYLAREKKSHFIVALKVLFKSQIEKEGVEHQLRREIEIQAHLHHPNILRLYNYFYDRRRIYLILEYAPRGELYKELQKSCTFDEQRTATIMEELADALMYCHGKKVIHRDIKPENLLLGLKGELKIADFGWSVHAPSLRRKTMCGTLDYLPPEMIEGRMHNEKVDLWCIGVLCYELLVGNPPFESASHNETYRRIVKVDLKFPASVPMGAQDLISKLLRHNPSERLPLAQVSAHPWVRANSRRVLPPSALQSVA

[13] = molecular target: Serine/threonine-protein kinase BRSK1 (Homo sapiens, UniProt Q8TDC3);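 note: measured within a kinome-wide kinase panel, with the target listed as KIAA1811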

Sequence of ALK tyrosine kinase receptor (Q9UM73 whole entry): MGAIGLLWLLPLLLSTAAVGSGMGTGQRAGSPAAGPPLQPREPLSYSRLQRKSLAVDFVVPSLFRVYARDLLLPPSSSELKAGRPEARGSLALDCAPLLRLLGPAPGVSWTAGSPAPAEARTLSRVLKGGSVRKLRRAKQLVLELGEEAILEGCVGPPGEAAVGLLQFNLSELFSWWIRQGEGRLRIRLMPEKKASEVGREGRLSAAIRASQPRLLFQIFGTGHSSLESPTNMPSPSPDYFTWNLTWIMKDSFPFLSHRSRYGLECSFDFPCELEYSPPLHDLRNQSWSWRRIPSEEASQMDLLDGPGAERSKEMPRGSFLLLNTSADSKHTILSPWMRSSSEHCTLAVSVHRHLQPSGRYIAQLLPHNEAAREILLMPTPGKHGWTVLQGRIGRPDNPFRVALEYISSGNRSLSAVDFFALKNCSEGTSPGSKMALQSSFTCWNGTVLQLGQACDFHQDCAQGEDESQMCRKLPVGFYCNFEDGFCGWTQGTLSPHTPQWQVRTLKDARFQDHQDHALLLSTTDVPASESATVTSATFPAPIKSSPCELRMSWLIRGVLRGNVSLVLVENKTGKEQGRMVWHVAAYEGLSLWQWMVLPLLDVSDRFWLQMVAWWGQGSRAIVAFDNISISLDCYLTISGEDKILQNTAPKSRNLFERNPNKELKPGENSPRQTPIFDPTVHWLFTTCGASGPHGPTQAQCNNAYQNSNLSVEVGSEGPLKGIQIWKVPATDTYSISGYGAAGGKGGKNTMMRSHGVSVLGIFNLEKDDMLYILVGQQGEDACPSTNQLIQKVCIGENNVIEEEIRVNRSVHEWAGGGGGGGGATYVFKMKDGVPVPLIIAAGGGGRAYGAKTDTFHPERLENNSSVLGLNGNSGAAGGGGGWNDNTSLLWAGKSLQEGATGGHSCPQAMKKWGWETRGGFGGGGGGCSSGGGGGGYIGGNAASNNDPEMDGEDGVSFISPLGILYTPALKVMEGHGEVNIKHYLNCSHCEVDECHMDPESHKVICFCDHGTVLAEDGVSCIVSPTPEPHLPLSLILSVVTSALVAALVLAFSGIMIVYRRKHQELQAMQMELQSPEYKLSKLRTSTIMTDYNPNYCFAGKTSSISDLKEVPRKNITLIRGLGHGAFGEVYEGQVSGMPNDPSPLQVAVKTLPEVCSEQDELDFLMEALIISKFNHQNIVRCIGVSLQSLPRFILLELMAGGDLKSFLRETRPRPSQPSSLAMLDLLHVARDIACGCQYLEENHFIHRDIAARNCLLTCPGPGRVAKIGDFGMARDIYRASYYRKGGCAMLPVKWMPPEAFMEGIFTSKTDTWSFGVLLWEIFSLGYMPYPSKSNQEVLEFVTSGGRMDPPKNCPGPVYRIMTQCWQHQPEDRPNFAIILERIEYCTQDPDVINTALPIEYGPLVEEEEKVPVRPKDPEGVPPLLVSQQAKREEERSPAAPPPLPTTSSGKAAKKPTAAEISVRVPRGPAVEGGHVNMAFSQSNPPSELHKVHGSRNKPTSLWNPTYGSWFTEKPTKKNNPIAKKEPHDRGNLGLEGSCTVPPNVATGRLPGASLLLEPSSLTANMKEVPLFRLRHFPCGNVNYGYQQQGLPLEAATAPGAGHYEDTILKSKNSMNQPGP

CCNC(=O)c1cnc(N)c2c(-c3ccc(NC(=O)Nc4cccc(Cl)c4)cc3)csc12
Ki [1]: 158 nM (active)
Ki [2]: > 100 µM (inactive)

O=C(c1ccc([N+](=O)[O-])o1)N1CCN(c2ccc(C(F)(F)F)cn2)CC1
EC50 [3]: 1.59 µM (active)
EC50 [4]: 9.82 µM (active)

COc1ccccc1C(=O)Nc1n[nH]c2ccc(-c3cn(Cc4ccccc4)nn3)cc12
Ki [5]: 501 nM (active)
Ki [6]: 3.98 nM (active)
Ki [7]: 20 nM (active)
Ki [8]: > 10 µM (inactive)
Ki [9]: 5.01 nM (active)
Ki [10]: > 7.94 µM (inactive)
Ki [11]: 3.98 nM (active)
Ki [12]: 79.4 nM (active)

CCc1cccc2c1n(CC)c(=N)n2CC(=O)c1ccc(Br)cc1
Ki (Aurora kinase B): 2.51 µM (active)
Ki [13]: 2 µM (active)
